From ChEMBL document CHEMBL1201862, “PubChem BioAssay data set” (2004)
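Growth conditions: 96-well plates. Treatment: test compound, 48 hours, 5 concentrations. Analysis: linear interpolation between bracketing concentrations; unreached endpoints set to highest concentration. Here, GI50 denotes the concentration required for 50% inhibition of growth.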 Activity calls are given as the source filed them. Rule as the data show it: active = GI50 up to about 1.1 µM and inactive = higher.

Tests used:
Assay in all cases: NCI tumour cell line growth inhibition, 48 h
CAKI-1 = system: CAKI-1
SK-OV-3 = system: SK-OV-3
K562 = system: K562
SNB-19 = system: SNB-19
HOP-62 = system: HOP-62
SK-MEL-5 = system: SK-MEL-5
OVCAR-3 = system: OVCAR-3
OVCAR-4 = system: OVCAR-4
KM12 = system: KM12
786-0 = system: 786-0
SF-268 = system: SF-268
HT-29 = system: HT-29
IGROV-1 = system: IGROV-1
HCT-15 = system: HCT-15
SW-620 = system: SW-620
M14 = system: M14
UACC-257 = system: UACC-257
UACC-62 = system: UACC-62
CCRF-CEM = system: CCRF-CEM
RXF 393 = system: RXF 393

| SMILES | GI50 (CAKI-1) | GI50 (SK-OV-3) | GI50 (K562) | GI50 (SNB-19) | GI50 (HOP-62) | GI50 (SK-MEL-5) | GI50 (OVCAR-3) | GI50 (OVCAR-4) | GI50 (KM12) | GI50 (786-0) | GI50 (SF-268) | GI50 (HT-29) | GI50 (IGROV-1) | GI50 (HCT-15) | GI50 (SW-620) | GI50 (M14) | GI50 (UACC-257) | GI50 (UACC-62) | GI50 (CCRF-CEM) | GI50 (RXF 393) |
| --- | --- | --- | --- | --- | --- | --- | --- | --- | --- | --- | --- | --- | --- | --- | --- | --- | --- | --- | --- | --- |
| O=C1CN=C(C[N+](=O)[O-])c2ccccc21 | > 100 µM (inactive) | > 100 µM (inactive) | > 100 µM (inactive) | > 100 µM (inactive) | > 100 µM (inactive) | > 100 µM (inactive) | > 100 µM (inactive) | > 100 µM (inactive) | > 100 µM (inactive) | > 100 µM (inactive) | > 100 µM (inactive) | > 100 µM (inactive) | > 100 µM (inactive) | > 100 µM | > 100 µM (inactive) | > 100 µM (inactive) | > 100 µM (inactive) | – | – | – |
| N#CC(C(=O)O)C(c1c(Cl)cccc1Cl)C(C#N)C(=O)O (configuration not stated) | > 100 µM (inactive) | > 100 µM (inactive) | > 100 µM (inactive) | > 100 µM (inactive) | > 100 µM (inactive) | > 100 µM (inactive) | > 100 µM (inactive) | > 100 µM (inactive) | > 100 µM (inactive) | > 100 µM (inactive) | > 100 µM (inactive) | > 100 µM (inactive) | > 100 µM (inactive) | > 100 µM | > 100 µM (inactive) | > 100 µM (inactive) | > 100 µM (inactive) | > 100 µM (inactive) | – | – |
| O=S(=O)(N/N=C1\CC2CCC1C2)c1ccccc1 (configuration not stated) | > 100 µM (inactive) | > 100 µM (inactive) | > 100 µM (inactive) | > 100 µM (inactive) | > 100 µM (inactive) | > 100 µM (inactive) | > 100 µM (inactive) | > 100 µM (inactive) | > 100 µM (inactive) | > 100 µM (inactive) | > 100 µM (inactive) | > 100 µM (inactive) | > 100 µM (inactive) | > 100 µM | > 100 µM (inactive) | > 100 µM (inactive) | > 100 µM (inactive) | > 100 µM (inactive) | > 100 µM (inactive) | – |
| C[n+]1c2ccccc2c(NCC(=O)O)c2ccccc21 | > 100 µM (inactive) | > 100 µM (inactive) | > 100 µM (inactive) | > 100 µM (inactive) | > 100 µM (inactive) | > 100 µM (inactive) | > 100 µM (inactive) | > 100 µM (inactive) | > 100 µM (inactive) | > 100 µM (inactive) | > 100 µM (inactive) | > 100 µM (inactive) | > 100 µM (inactive) | > 100 µM | > 100 µM (inactive) | > 100 µM (inactive) | > 100 µM (inactive) | > 100 µM (inactive) | – | > 100 µM (inactive) |
| CC(=O)/C(=C/NC(=S)Nc1ccc(Cl)c(Cl)c1)C(=O)Nc1ccccc1C | 22.3 µM (inactive) | 30.9 µM (inactive) | – | 26.8 µM (inactive) | 33.4 µM (inactive) | 19.2 µM (inactive) | 24.3 µM (inactive) | 18.6 µM (inactive) | 24.9 µM (inactive) | 35 µM (inactive) | 34.5 µM (inactive) | 22.3 µM (inactive) | 27.4 µM (inactive) | 29.6 µM | 44.1 µM (inactive) | 37 µM (inactive) | 31.7 µM (inactive) | 19 µM (inactive) | – | 29.4 µM (inactive) |
| COC(=O)CCC(NC(=S)N/N=C(\C)c1nccs1)C(=O)OC (configuration not stated) | – | > 100 µM (inactive) | 16.2 µM (inactive) | > 100 µM (inactive) | 48.8 µM (inactive) | 36.4 µM (inactive) | 31.3 µM (inactive) | 45.8 µM (inactive) | > 100 µM (inactive) | 69.3 µM (inactive) | 56.6 µM (inactive) | 73.5 µM (inactive) | 73.5 µM (inactive) | 46.3 µM | 47.5 µM (inactive) | 41.8 µM (inactive) | > 100 µM (inactive) | 28.1 µM (inactive) | – | 42.2 µM (inactive) |
| COc1cc(CN[C@H]2CCc3cc(OC)c(OC)c(OC)c3-c3ccc(SC)c(=O)cc32)cc(OC)c1 | 0.0566 µM (active) | 0.0284 µM (active) | 0.0317 µM (active) | 0.0681 µM (active) | 0.0562 µM (active) | 0.0336 µM (active) | 0.0334 µM (active) | 0.0731 µM (active) | 0.0385 µM (active) | 0.0468 µM (active) | 0.043 µM (active) | 0.0249 µM (active) | 0.0403 µM (active) | 0.0483 µM | 0.0347 µM (active) | 0.0322 µM (active) | 0.0566 µM (active) | 0.0238 µM (active) | – | 0.0266 µM (active) |
| CC(=O)Oc1cc(/C=C/c2ccc(O)cc2)cc(OC(C)=O)c1 | 35.7 µM (inactive) | > 100 µM (inactive) | 20.7 µM (inactive) | 55.8 µM (inactive) | 48.2 µM (inactive) | 14.5 µM (inactive) | 48 µM (inactive) | 18.3 µM (inactive) | 24.1 µM (inactive) | 37.5 µM (inactive) | 43.2 µM (inactive) | 19.3 µM (inactive) | 64.9 µM (inactive) | 26.5 µM | 26.1 µM (inactive) | 64.6 µM (inactive) | 30.9 µM (inactive) | 18.2 µM (inactive) | – | 58.1 µM (inactive) |
